Results as given in US12012394B2, “Alpha-synuclein ligands” (Washington University, priority 2018, dated 2024).
Where “and” joins values, the source holds several entries; their conditions need not be identical. Equal entries are not always repeated.

Legend:
Experimental Log P = type: physicochemical
[1] = MicroPET studies in the brain of nonhuman primate; type: in vivo; conditions: male adult cynomolgus macaca
Description: 9.93 mCi of [^18F]TZ61-44 was injected into a male adult cynomolgus macaca (9.25 Kg) 10.57 mCi of [^11C]TZ55-107 was injected into was injected into a male adult cynomolgus macaca (9.40 Kg) A simplified reference tissue model (SRTM) and spatially-constraint linear regression algorithm was used to generate R1 and DVR images (FIGS. 18A and 18B).
FIGS. 19A and 19B graphically depict the uptake of labeled TZ55-107 and TZ61-44 in the animals. [^18F]TZ61-44 had highest cortical uptake (SUV) of ˜3.48 at 4 min and the uptake ratio at 4 min versus 120 min reached ˜4.2 (FIG. 19A); [^11C]TZ55-107 had highest cortical uptake of ˜6.40 at 4 min, and the uptake ratio at 4 min versus 120 min reached ˜6.30 (FIG. 19B).

[2] = biological target: Banner PD-seeded α-synuclein fibrils (Homo sapiens (Human), UniProt P37840); assay: Homologous competition radioligand binding assay, PD-seeded fibrils
Description: The equilibrium dissociation constant (Kd) for a series of compounds was determined using direct radioactive competitive binding assays (homologous or heterologous) with either recombinant α-synuclein fibrils or brain tissue homogenates from AD cases.
Recombinant protein was produced in E. coli using protocols based on previously described methods for α-synuclein [Giasson, B. I., et al., “Mutant and wild type human alpha-synucleins assemble into elongated filaments with distinct morphologies in vitro,” 1999, J Biol. Chem., 274:7619-7622; Huang, C., et al., “A new method for purification of recombinant human alpha-synuclein in Escherichia coli,” 2005, Protein Expr Purif, 42:173-177; Yu, L., et al, “Synthesis and in vitro evaluation of á-synuclein ligands,” 2012, Bioorg. Med. Chem., 20:4625-4634] and tau [Li, W., et al., “Characterization of two VQIXXK motifs for tau fibrillization in vitro,” 2006, Biochemistry, 45:15692-15701]. BL21(DE3)RIL E. coli were transformed with a pRK172 bacterial expression plasmid containing the human α-synuclein coding sequence. […]. Overnight cultures were centrifuged at 3,900×g for 10 min at 25° C. and the bacterial pellets were resuspended by gentle vortexing in 20 ml osmotic shock buffer (30 mM Tris-HCl, 2 mM EDTA, 40% Sucrose, pH 7.2) and then incubated at room temperature for 10 min. The cell suspension was then centrifuged at 8,000×g for 10 min at 25° C. and the pellet was resuspended in 22.5 ml cold H2O before adding 9.4 μl 2 M MgCl2 to each tube. The suspension was incubated on ice for 3 min prior to centrifugation at 20,000×g for 15 min at 4° C. After the supernatant was transferred to a fresh tube, streptomycin was added to a final concentration of 10 mg/ml and centrifuged at 20,000×g for 15 min at 4° C. The supernatant from this step was collected and dithiothreitol (DTT) and Tris-HCl pH 8.0 were added to final concentrations of 1 mM and 20 mM respectively, before boiling for 10 min to precipitate heat-sensitive proteins, which were pelleted at 20,000×g for 15 min at 4° C. The supernatant was collected and filtered through a 0.45 μm surfactant-free cellulose acetate filter (Corning) before loading onto a 1 ml DEAE Sepharose column equilibrated in 20 mM Tris-HCl pH 8.0, 1 mM EDTA, and 1 mM DTT. The DEAE column was washed with 20 mM Tris-HCl pH 8.0, 1 mM EDTA, 1 mM DTT before eluting α-synuclein protein in 20 mM Tris-HCl pH 8.0 buffer with 1 mM EDTA, 1 mM DTT and 0.3 M NaCl. Purified α-synuclein protein was dialyzed overnight in 10 mM Tris-HCl pH 7.6, 50 mM NaCl, 1 mM DTT.
Purified recombinant α-synuclein monomer (2 mg/ml) was incubated in 20 mM Tris-HCl, pH 8.0, 100 mM NaCl for 72 h at 37 C with shaking at 1000 rpm in an Eppendorf Thermomixer. […] The concentration of α-synuclein monomer in the supernatant was determined in a BCA protein assay according to the manufacturer's instructions, using a bovine serum albumin (BSA) standard curve. The measured decrease in α-synuclein monomer concentration was used to determine the concentration of fibrils in the 72 h fibril reaction mixture. […]
These direct binding assays used a fixed concentration of either fibrils or PD/AD tissue and the radioligand (e.g., [^18F]28) and varying concentration ranges of corresponding homologous non-radiolabeled standard reference compound. […] Reactions were incubated at 37° C. for 1 h before quantifying bound radioligand. […]

With `COc1ccc(Nc2ccc3cc(OCCF)ccc3n2)cn1` [TZ61-44] the logP (Experimental Log P) was 1.97 ± 0.4, the “highest cortical uptake (SUV)” value ([1]; brain cortex, at 4 min) was about 3.48 SUV and the “uptake ratio at 4 min versus 120 min” value ([1]; brain cortex) was about 4.2. For the same compound, the “blood brain barrier penetration” value [1] was “able to penetrate the blood brain barrier”, the Kd ([2]; 25 nM Banner PD-seeded fibrils) was 5.4 nM and 9.7 nM and 12 nM and 25 nM and 26 nM and the Kd ([2]; 75 nM Banner PD-seeded fibrils) was 30 nM.
